# Results published in ChEMBL document CHEMBL4507311, “Data for DCP probe A-1155463” (2021).
# The source made the active and inactive calls. The calls are words filed in the database; no cut-off is given here.
# Legend:
# [1] = target: Tyrosine-protein kinase CSK (Homo sapiens) (UniProt P41240); settings: Compound concentration 1000.0 nM
# [2] = system: Phosphatidylinositol 4,5-bisphosphate 3-kinase catalytic subunit alpha isoform (Homo sapiens), P42336 [H1047L]; settings: Compound concentration 1000.0 nM
# [3] = system: Tyrosine-protein kinase ABL1 (Homo sapiens), P00519 [T315I]; settings: Compound concentration 1000.0 nM
# [4] = system: Fibroblast growth factor receptor 3 (Homo sapiens), P22607 [G697C]; settings: Compound concentration 1000.0 nM
# [5] = target: Mitogen-activated protein kinase kinase kinase kinase 2 (Homo sapiens) (UniProt Q12851); settings: Compound concentration 1000.0 nM
# [6] = target: T1, 5-hydroxytryptamine receptor 3A (Homo sapiens) (UniProt P46098); settings: Compound concentration 10.0 uM
# T1 sequence (whole entry): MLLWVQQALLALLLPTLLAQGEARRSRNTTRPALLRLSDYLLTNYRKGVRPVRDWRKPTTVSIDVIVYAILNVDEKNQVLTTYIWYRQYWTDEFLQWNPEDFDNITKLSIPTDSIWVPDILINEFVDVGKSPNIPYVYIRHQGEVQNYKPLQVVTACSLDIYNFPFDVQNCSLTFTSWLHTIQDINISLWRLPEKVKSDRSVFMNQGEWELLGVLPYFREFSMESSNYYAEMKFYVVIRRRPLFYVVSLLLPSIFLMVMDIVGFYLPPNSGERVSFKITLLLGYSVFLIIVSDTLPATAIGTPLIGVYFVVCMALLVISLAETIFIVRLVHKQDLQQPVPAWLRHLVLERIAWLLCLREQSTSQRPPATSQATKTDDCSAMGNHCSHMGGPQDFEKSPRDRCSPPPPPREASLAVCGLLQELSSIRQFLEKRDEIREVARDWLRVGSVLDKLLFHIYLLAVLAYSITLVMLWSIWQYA
# [7] = target: Cyclin-dependent kinase 11B (Homo sapiens) (UniProt P21127); settings: Compound concentration 1000.0 nM
# [8] = system: Receptor-type tyrosine-protein kinase FLT3 (Homo sapiens), P36888 [R834Q]; settings: Compound concentration 1000.0 nM
# [9] = target: Tyrosine-protein kinase TXK (Homo sapiens) (UniProt P42681); settings: Compound concentration 1000.0 nM
# Histamine H3 receptor = Histamine H3 receptor (Homo sapiens, UniProt Q9Y5N1); experiment: GPCRScan assay: inhibition of H3; parameters: radioligand conc. used [nm] 0.5 – 1.0, parental cells HEK Flp-In
# [10] = target: Cyclin-dependent kinase 16 (Homo sapiens) (UniProt Q00536); settings: Compound concentration 1000.0 nM
# [11] = target: 5-hydroxytryptamine receptor 1D (Homo sapiens) (UniProt P28221); settings: Compound concentration 10.0 uM
# [12] = target: Serine/threonine-protein kinase PLK1 (Homo sapiens) (UniProt P53350); settings: Compound concentration 1000.0 nM
# [13] = system: Receptor-type tyrosine-protein kinase FLT3 (Homo sapiens), P36888 [UNDEFINED MUTATION]; settings: Compound concentration 1000.0 nM
# [14] = target: Mitogen-activated protein kinase kinase kinase kinase 3 (Homo sapiens) (UniProt Q8IVH8); settings: Compound concentration 1000.0 nM
# [15] = system: Mast/stem cell growth factor receptor Kit (Homo sapiens), P10721 [A829P]; settings: Compound concentration 1000.0 nM
# [16] = target: Protein kinase C eta type (Homo sapiens) (UniProt P24723); settings: Compound concentration 1000.0 nM
# [17] = target: Ephrin type-B receptor 2 (Homo sapiens) (UniProt P29323); settings: Compound concentration 1000.0 nM
# [18] = target: Myosin-IIIb (Homo sapiens) (UniProt Q8WXR4); settings: Compound concentration 1000.0 nM
# [19] = target: Calcium/calmodulin-dependent protein kinase type 1G (Homo sapiens) (UniProt Q96NX5); settings: Compound concentration 1000.0 nM
# [20] = target: Serine/threonine-protein kinase MARK2 (Homo sapiens) (UniProt Q7KZI7); settings: Compound concentration 1000.0 nM
# [21] = target: Serine/threonine-protein kinase PLK2 (Homo sapiens) (UniProt Q9NYY3); settings: Compound concentration 1000.0 nM
# NCI-H146 = experiment: CellTiter-Glo Luminescent Cell Viability Assay (BCL-XL dependent cell line H146); format: functional, cell-based; settings: Homo sapiens
# [22] = target: Dual specificity mitogen-activated protein kinase kinase 4 (Homo sapiens) (UniProt P45985); settings: Compound concentration 1000.0 nM
# [23] = target: T2, 5-hydroxytryptamine receptor 2C (Homo sapiens) (UniProt P28335); settings: Compound concentration 10.0 uM
# T2 sequence (whole entry): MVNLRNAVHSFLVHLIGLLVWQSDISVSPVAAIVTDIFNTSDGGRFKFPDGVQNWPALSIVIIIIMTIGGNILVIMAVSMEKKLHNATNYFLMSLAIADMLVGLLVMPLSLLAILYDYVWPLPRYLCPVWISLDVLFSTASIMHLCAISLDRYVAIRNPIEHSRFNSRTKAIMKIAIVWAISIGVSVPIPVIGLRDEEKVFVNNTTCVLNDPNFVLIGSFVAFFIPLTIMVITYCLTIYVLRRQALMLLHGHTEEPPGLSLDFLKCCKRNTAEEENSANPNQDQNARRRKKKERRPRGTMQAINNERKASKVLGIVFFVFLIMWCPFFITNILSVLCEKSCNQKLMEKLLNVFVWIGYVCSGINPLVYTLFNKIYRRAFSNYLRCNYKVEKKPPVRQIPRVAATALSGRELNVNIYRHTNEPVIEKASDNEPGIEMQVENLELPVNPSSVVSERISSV
# [24] = target: Serine/threonine-protein kinase 38 (Homo sapiens) (UniProt Q15208); settings: Compound concentration 1000.0 nM
# [25] = system: Phosphatidylinositol 4,5-bisphosphate 3-kinase catalytic subunit alpha isoform (Homo sapiens), P42336 [C420R]; settings: Compound concentration 1000.0 nM
# [26] = target: Macrophage colony-stimulating factor 1 receptor (Homo sapiens) (UniProt P07333); settings: Compound concentration 1000.0 nM
# [27] = target: Rhodopsin kinase GRK1 (Homo sapiens) (UniProt Q15835); settings: Compound concentration 1000.0 nM
# [28] = target: Serine/threonine-protein kinase BRSK1 (Homo sapiens) (UniProt Q8TDC3); settings: Compound concentration 1000.0 nM
# [29] = target: Ribosomal protein S6 kinase alpha-6 (Homo sapiens) (UniProt Q9UK32); settings: Compound concentration 1000.0 nM
# [30] = target: Non-receptor tyrosine-protein kinase TNK1 (Homo sapiens) (UniProt Q13470); settings: Compound concentration 1000.0 nM
# Sequence of Non-receptor tyrosine-protein kinase TNK1 (Homo sapiens) (Q13470 whole entry): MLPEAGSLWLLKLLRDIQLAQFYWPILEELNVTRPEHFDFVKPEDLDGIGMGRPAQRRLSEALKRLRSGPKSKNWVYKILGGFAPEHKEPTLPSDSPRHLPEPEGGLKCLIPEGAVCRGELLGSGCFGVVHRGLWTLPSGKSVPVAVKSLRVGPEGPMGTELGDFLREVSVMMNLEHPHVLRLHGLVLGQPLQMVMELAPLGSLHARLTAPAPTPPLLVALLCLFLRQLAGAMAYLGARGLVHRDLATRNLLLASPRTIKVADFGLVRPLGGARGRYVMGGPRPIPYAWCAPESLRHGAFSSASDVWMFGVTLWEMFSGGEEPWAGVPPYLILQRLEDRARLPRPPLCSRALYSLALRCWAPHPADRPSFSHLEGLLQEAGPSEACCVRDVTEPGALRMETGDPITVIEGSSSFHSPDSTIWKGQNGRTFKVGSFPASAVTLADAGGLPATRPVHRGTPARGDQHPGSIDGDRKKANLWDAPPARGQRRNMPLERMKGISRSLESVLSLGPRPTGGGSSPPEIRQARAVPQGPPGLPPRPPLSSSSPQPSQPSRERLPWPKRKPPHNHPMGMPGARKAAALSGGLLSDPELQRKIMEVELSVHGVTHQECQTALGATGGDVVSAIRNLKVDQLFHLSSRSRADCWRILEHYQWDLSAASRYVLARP
# Sequence of Cyclin-dependent kinase 16 (Homo sapiens) (Q00536 whole entry): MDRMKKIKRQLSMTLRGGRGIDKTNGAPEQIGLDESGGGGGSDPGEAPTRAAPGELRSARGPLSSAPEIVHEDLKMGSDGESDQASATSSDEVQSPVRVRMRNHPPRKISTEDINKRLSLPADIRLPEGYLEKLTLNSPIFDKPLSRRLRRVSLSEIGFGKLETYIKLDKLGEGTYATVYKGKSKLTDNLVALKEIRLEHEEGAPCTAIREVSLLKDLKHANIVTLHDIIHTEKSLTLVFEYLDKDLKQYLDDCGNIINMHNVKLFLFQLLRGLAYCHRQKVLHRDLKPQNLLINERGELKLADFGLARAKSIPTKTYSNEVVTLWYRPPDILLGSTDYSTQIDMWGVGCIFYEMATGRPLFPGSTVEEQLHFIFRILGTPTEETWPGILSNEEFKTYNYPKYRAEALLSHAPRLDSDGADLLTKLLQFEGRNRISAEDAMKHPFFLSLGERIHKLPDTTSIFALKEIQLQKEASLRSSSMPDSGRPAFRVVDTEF
# Sequence of Serine/threonine-protein kinase BRSK1 (Homo sapiens) (Q8TDC3 whole entry): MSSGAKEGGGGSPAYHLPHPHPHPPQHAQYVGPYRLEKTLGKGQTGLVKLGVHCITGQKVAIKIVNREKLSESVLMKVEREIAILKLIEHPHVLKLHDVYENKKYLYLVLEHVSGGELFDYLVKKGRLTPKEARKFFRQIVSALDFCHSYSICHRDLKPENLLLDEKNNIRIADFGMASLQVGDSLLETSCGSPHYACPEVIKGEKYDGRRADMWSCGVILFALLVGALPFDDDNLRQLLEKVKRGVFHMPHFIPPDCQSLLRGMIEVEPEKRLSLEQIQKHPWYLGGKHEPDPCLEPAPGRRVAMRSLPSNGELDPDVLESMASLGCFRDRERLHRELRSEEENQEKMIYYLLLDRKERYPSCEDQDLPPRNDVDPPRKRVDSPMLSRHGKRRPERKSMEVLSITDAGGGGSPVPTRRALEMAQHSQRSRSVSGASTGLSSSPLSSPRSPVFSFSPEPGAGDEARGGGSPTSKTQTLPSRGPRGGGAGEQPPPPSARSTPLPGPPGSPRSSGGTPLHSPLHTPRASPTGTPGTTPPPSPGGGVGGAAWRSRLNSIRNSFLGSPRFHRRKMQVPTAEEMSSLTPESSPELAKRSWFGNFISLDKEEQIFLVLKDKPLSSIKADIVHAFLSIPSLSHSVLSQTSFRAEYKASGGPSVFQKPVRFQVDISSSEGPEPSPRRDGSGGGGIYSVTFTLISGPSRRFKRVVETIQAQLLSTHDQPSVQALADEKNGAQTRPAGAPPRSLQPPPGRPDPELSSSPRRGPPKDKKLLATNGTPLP
# Sequence of Mitogen-activated protein kinase kinase kinase kinase 3 (Homo sapiens) (Q8IVH8 whole entry): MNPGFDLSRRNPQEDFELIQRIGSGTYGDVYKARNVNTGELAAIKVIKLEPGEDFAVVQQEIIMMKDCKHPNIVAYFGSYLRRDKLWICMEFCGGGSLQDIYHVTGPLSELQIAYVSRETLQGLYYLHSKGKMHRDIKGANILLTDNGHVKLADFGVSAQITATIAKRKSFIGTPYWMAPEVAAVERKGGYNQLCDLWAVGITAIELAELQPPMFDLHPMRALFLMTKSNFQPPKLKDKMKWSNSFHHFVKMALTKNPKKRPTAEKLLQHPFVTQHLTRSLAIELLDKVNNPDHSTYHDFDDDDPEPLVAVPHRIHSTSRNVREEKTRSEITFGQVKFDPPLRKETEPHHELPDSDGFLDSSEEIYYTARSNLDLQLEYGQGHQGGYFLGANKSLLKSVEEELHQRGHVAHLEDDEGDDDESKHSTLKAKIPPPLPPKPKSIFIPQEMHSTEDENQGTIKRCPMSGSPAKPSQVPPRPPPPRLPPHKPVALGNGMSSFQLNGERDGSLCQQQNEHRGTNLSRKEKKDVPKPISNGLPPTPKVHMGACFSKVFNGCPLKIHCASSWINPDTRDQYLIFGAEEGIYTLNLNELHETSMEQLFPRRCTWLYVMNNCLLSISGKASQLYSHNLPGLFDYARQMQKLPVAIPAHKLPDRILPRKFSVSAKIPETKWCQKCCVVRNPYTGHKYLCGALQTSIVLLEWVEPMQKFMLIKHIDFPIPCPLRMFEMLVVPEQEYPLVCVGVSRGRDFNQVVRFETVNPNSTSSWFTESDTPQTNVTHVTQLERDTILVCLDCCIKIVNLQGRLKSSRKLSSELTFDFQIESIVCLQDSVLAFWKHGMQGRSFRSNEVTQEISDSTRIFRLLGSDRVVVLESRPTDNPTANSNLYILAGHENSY
# Sequence of Tyrosine-protein kinase CSK (Homo sapiens) (P41240 2-450 limits assumed): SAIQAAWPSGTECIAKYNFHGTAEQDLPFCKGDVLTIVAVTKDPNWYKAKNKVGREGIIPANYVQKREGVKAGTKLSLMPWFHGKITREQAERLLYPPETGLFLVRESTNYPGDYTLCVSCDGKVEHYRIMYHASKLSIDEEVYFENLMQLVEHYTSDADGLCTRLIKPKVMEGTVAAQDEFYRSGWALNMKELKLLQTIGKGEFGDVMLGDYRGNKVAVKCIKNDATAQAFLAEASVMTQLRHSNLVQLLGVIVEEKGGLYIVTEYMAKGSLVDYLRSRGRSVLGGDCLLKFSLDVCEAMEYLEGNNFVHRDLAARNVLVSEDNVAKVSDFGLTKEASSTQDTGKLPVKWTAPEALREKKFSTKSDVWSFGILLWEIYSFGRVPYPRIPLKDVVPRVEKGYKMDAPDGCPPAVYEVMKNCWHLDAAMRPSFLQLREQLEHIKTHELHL
# Sequence of Ephrin type-B receptor 2 (Homo sapiens) (P29323 whole entry): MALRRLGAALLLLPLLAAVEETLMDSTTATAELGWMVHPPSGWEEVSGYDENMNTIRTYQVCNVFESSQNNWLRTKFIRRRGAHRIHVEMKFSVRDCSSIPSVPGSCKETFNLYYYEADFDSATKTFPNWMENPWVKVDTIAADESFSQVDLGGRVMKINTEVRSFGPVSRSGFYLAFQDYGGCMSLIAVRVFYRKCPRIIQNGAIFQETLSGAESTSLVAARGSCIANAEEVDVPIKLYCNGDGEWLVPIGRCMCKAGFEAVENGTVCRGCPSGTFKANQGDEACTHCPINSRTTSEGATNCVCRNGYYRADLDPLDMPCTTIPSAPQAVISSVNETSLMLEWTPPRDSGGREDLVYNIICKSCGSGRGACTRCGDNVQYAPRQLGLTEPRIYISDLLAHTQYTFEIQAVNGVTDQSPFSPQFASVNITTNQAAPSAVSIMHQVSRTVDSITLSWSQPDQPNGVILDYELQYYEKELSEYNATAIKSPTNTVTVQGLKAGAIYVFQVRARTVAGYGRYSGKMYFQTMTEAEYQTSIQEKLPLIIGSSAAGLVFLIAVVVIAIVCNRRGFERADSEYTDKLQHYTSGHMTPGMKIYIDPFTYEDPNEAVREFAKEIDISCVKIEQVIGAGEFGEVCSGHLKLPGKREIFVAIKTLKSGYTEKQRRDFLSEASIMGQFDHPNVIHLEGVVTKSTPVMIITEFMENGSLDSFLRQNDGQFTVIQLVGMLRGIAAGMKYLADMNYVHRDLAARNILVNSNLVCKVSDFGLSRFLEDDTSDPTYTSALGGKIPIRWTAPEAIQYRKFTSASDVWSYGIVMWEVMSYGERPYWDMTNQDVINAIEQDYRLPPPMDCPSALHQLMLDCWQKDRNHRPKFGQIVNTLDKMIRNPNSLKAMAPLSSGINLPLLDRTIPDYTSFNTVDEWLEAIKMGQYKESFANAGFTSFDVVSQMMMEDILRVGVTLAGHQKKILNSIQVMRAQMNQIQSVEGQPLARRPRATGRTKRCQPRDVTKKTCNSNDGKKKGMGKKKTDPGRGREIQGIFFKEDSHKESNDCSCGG
# Sequence of Dual specificity mitogen-activated protein kinase kinase 4 (Homo sapiens) (P45985 whole entry): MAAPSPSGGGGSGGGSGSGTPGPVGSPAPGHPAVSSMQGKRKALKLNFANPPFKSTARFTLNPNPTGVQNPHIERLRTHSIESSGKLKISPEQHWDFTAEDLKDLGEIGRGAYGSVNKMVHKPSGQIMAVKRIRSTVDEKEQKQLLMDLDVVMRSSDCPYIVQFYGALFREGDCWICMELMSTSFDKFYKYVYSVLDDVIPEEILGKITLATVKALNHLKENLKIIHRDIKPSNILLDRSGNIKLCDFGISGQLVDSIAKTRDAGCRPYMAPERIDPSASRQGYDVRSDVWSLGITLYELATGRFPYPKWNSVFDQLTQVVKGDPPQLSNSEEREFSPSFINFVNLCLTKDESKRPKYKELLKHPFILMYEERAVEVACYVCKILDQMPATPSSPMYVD
structure (smiles),measurement,setting,value
CN(C)CC#Cc1ccc(OCCCc2sc(N3CCc4cccc(C(=O)Nc5nc6ccccc6s5)c4C3)nc2C(=O)O)c(F)c1 [A-1155463],residual activity,[1],90%
same,residual activity,[2],68%
same,residual activity,[3],92%
same,residual activity,[4],88%
same,residual activity,[5],100%
same,inhibition,[6],85.4%
same,residual activity,[7],93%
same,residual activity,[8],100%
same,residual activity,[9],100%
same,Ki,Histamine H3 receptor,1810 nM
same,residual activity,[10],100%
same,inhibition,[11],34.5%
same,residual activity,[12],100%
same,residual activity,[13],97%
same,residual activity,[14],92%
same,residual activity,[15],100%
same,residual activity,[16],74%
same,residual activity,[17],100%
same,residual activity,[18],96%
same,residual activity,[19],94%
same,residual activity,[20],100%
same,residual activity,[21],94%
same,EC50,NCI-H146,70 nM (active)
same,residual activity,[22],100%
same,inhibition,[23],1.97%
same,residual activity,[24],76%
same,residual activity,[25],100%
same,residual activity,[26],100%
same,residual activity,[27],95%
same,residual activity,[28],100%
same,residual activity,[29],97%
same,residual activity,[30],98%
